Assay: xn = mol fraction of the nth substance listed
Conditions: Liquid; for viscosity: 101 kPa, Capillary tube (Ostwald / Ubbelohde) method; for mass density: 101.3 kPa

CC(C)(C)Cl [2-chloro-2-methylpropane] + CC(C)OC(C)C
Conditions | mass density [kg/m3] | viscosity [mPa·s]
283.15 K, x1 = 0.049 | 738.51 | 0.3693
283.15 K, x1 = 0.0996 | 743.477 | 0.3746
283.15 K, x1 = 0.1991 | 753.625 | 0.386
283.15 K, x1 = 0.3212 | 766.738 | 0.4025
283.15 K, x1 = 0.4189 | 777.752 | 0.4183
283.15 K, x1 = 0.5148 | 789.053 | 0.4365
283.15 K, x1 = 0.6213 | 802.211 | 0.4606
283.15 K, x1 = 0.7152 | 814.386 | 0.4862
283.15 K, x1 = 0.8138 | 827.842 | 0.5182
283.15 K, x1 = 0.9079 | 841.347 | 0.555
283.15 K, x1 = 0.9552 | 848.401 | 0.5761
283.15 K, x1 = 1 | 855.249 | 0.598
288.15 K, x1 = 0.049 | 733.338 | 0.3531
288.15 K, x1 = 0.0996 | 738.271 | 0.358
288.15 K, x1 = 0.1991 | 748.35 | 0.3683
288.15 K, x1 = 0.3212 | 761.373 | 0.3827
288.15 K, x1 = 0.4189 | 772.308 | 0.3963
288.15 K, x1 = 0.5148 | 783.527 | 0.412
288.15 K, x1 = 0.6213 | 796.59 | 0.4328
288.15 K, x1 = 0.7152 | 808.683 | 0.4549
288.15 K, x1 = 0.8138 | 822.038 | 0.4829
288.15 K, x1 = 0.9079 | 835.446 | 0.5154
288.15 K, x1 = 0.9552 | 842.442 | 0.5342
288.15 K, x1 = 1 | 849.243 | 0.5538
293.15 K, x1 = 0.049 | 728.121 | 0.3381
293.15 K, x1 = 0.0996 | 733.024 | 0.3425
293.15 K, x1 = 0.1991 | 743.024 | 0.3515
293.15 K, x1 = 0.3212 | 755.959 | 0.3641
293.15 K, x1 = 0.4189 | 766.815 | 0.376
293.15 K, x1 = 0.5148 | 777.959 | 0.3894
293.15 K, x1 = 0.6213 | 790.929 | 0.4075
293.15 K, x1 = 0.7152 | 802.935 | 0.4268
293.15 K, x1 = 0.8138 | 816.186 | 0.4512
293.15 K, x1 = 0.9079 | 829.489 | 0.4796
293.15 K, x1 = 0.9552 | 836.437 | 0.4962
293.15 K, x1 = 1 | 843.191 | 0.5135
298.15 K, x1 = 0.049 | 722.867 | 0.3217
298.15 K, x1 = 0.0996 | 727.738 | 0.3258
298.15 K, x1 = 0.1991 | 737.666 | 0.3342
298.15 K, x1 = 0.3212 | 750.506 | 0.3458
298.15 K, x1 = 0.4189 | 761.288 | 0.3564
298.15 K, x1 = 0.5148 | 772.351 | 0.3686
298.15 K, x1 = 0.6213 | 785.231 | 0.3845
298.15 K, x1 = 0.7152 | 797.145 | 0.4014
298.15 K, x1 = 0.8138 | 810.301 | 0.4229
298.15 K, x1 = 0.9079 | 823.502 | 0.4476
298.15 K, x1 = 0.9552 | 830.397 | 0.4619
298.15 K, x1 = 1 | 837.096 | 0.4768
303.15 K, x1 = 0.049 | 717.578 | 0.304
303.15 K, x1 = 0.0996 | 722.412 | 0.308
303.15 K, x1 = 0.1991 | 732.264 | 0.3164
303.15 K, x1 = 0.3212 | 745.013 | 0.3277
303.15 K, x1 = 0.4189 | 755.716 | 0.3379
303.15 K, x1 = 0.5148 | 766.702 | 0.3492
303.15 K, x1 = 0.6213 | 779.484 | 0.3639
303.15 K, x1 = 0.7152 | 791.308 | 0.3791
303.15 K, x1 = 0.8138 | 804.365 | 0.3979
303.15 K, x1 = 0.9079 | 817.467 | 0.4191
303.15 K, x1 = 0.9552 | 824.312 | 0.4313
303.15 K, x1 = 1 | 830.958 | 0.4438
308.15 K, x1 = 0.049 | 712.24 | 0.2892
308.15 K, x1 = 0.0996 | 717.039 | 0.2928
308.15 K, x1 = 0.1991 | 726.821 | 0.3006
308.15 K, x1 = 0.3212 | 739.479 | 0.3115
308.15 K, x1 = 0.4189 | 750.102 | 0.3216
308.15 K, x1 = 0.5148 | 761.005 | 0.3327
308.15 K, x1 = 0.6213 | 773.688 | 0.3468
308.15 K, x1 = 0.7152 | 785.436 | 0.3613
308.15 K, x1 = 0.8138 | 798.392 | 0.3787
308.15 K, x1 = 0.9079 | 811.393 | 0.398
308.15 K, x1 = 0.9552 | 818.179 | 0.4087
308.15 K, x1 = 1 | 824.772 | 0.4196
313.15 K, x1 = 0.049 | 706.856 | 0.2751
313.15 K, x1 = 0.0996 | 711.61 | 0.2783
313.15 K, x1 = 0.1991 | 721.328 | 0.2856
313.15 K, x1 = 0.3212 | 733.893 | 0.2963
313.15 K, x1 = 0.4189 | 744.44 | 0.3061
313.15 K, x1 = 0.5148 | 755.257 | 0.3171
313.15 K, x1 = 0.6213 | 767.848 | 0.3306
313.15 K, x1 = 0.7152 | 779.502 | 0.3436
313.15 K, x1 = 0.8138 | 792.362 | 0.3586
313.15 K, x1 = 0.9079 | 805.256 | 0.3741
313.15 K, x1 = 0.9552 | 811.996 | 0.3824
313.15 K, x1 = 1 | 818.536 | 0.3904

Reference: the NIST ThermoML archive (doi:10.1007/s10765-010-0737-5)
